Test results: US10995068B2, “Synthetic sphingolipid-like molecules, drugs, methods of their synthesis and methods of treatment” (The Regents of the University of California, priority 2015, dated 2021)

How the values were obtained:
PP2A = PP2A phosphatase activity; format: biochemical, murine; conditions: PP2A immunoprecipitated from FL5.12 cell lysates, phosphopeptide dephosphorylation
Source text: Furthermore, many embodiments of the invention are directed to azacyclic constrained sphingolipid-like molecules inducing internalization of nutrient transporters via a mechanism that activates PP2A. […] Thus, activation of PP2A is very peculiar to certain sphingolipid structures. Activation of PP2A by FTY720 and SH-BC-893 also stimulated vacuolation, and as the PP2A inhibitors calyculin A and SV40 small t antigen, each blocked this effect (FIG. 59C). Of note, YM201636-induced vacuolation was unaffected by PP2A inhibition (FIG. 60B). In addition, inhibiting PP2A restored PIKfyve to the proper location within vacuoles in cells treated with FTY720 or SH-BC-893 (FIG. 57D).
PP2A phosphatase activity. PP2A activity was measured using a PP2A immunoprecipitation phosphatase assay kit (EMD Millipore). Briefly, the catalytic subunit of PP2A was immunoprecipitated from FL5.12 cell lysates with 4 μg anti-PP2A, C subunit. After four washes, the activity of immunoprecipitated PP2A was assessed by dephosphorylation of the phosphopeptide according to the manufacturer's instructions in the presence or absence of C2-ceramide, dihydro-C2-ceramide, FTY720, SH-BC-893, or calyculinA.

S1P receptor 3 = target: T1, S1P receptor 3 (Homo sapiens, UniProt Q99500); experiment: S1P receptor activation in CHO cells, S1P3; format: cell-based; conditions: CHO cells over-expressing human S1P3
T1 construct: expressed in transfected cells
T1 sequence (Q99500 whole entry): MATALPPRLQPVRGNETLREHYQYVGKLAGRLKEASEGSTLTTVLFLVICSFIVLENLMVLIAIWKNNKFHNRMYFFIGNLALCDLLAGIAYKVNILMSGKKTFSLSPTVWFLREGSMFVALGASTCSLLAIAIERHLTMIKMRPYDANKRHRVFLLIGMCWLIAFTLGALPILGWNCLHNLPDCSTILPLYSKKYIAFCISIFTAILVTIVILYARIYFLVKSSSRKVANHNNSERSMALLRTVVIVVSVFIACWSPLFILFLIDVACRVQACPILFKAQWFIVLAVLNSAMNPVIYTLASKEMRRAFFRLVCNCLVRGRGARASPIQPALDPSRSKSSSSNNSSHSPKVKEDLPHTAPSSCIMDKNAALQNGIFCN
Source text: Phosphorylation may have effects on S1P receptor activity that could cause bradycardia. Bradycardia, the dose-limiting toxicity that prevents the use of FTY720 in cancer patients, stems from FTY720-P's actions on S1P receptors 1 and 3. (Camm, J., et al. (2014) Am. Heart J. 168, 632-644; Cohen, J. A., Chun, J. (2011) Ann. Neurol. 69, 759-777; Sanna, M. G., et al. (2004) J. Biol. Chem. 279, 13839-13848; the disclosures of which are incorporated herein by reference). Phosphorylation by sphingosine kinase may make compounds competent to activate S1P receptors. FTY720, for example, when phosphorylated is known to activate S1P receptors 1 and 3. Because compound 5 could be phosphorylated, the activity of compound 5 and its phosphate 5-P (FIG. 28) on S1P receptors was evaluated (FIG. 32).
51P1-5 activation: Chinese hamster ovary (CHO) cells stably over-expressing the different human 51P receptor subtypes are used. S1P1, S1P4 and S1P5 overexpressing CHO cells are cultured in medium containing alpha-MEM supplemented with 10% FBS, 50 μg/ml gentamycin and 0.5 mg/ml G418. S1P2 and S1P3 overexpressing CHO cells are cultured in RPMI containing 10% FBS, 50 μg/ml gentamycin and 0.5 mg/ml G418. Prior to stimulation, cells are rendered serum-free for 24 h. Stimulation is carried out for 10 min in serum-free DMEM containing 0.1 mg/ml of fatty-acid free BSA in the absence or presence of the various compounds or 51P. Protein lysates are prepared using a buffer containing (50 mM Tris pH 7.4, 150 mM NaCl, 10% glycerol, 1% Triton X-100, 2 mM EDTA, 2 mM EGTA, 40 mM β-glycerophosphate, 50 mM sodium fluoride, 10 mM sodium pyrophosphate, 2 mM dithiothreitol, 0.2 mM sodium orthovanadate). Cells are homogenized by one 5 sec burst in a MSE Ultrasonic Disintegrator, centrifuged and taken for protein determination. Equal amounts of protein are separated by SDS-PAGE (10% polyacrylamide gel), transferred to nitrocellulose membranes and subjected to Western blot analysis. Bands were stained using IRDye® secondary antibodies and visualized by the LICOR Odyssey® Fc Imaging system. Antibodies against phospho-Thr202/Tyr204-p42/p44-MAPK and phospho-Ser PKC substrate are from Cell Signaling, Frankfurt am Main, Germany. Polyclonal antisera against total p42 and total p44 were generated and characterized as previously described. (Huwiler, A.; Pfeilschifter, J. Br. J. Pharmacol. 1994, 113, 1455-1463; disclosure of which is incorporated herein by reference).

Row | Compound | PP2A activation (PP2A) | activation of S1P receptor 3 (S1P receptor 3)
1 | CCCCCCCCc1ccc(CCC(N)(CO)CO)cc1.Cl [FTY720, 2-Amino-2-[2-(4-octylphenyl)ethyl]propane 1,3-diol hydrochloride, reference compound] | activating PP2A | 
2 | CCCCCCCCc1ccc([C@@H]2CCN[C@H]2CO)cc1.Cl [Compound 6] |  | failed to activate
3 | CCCCCCCCc1ccc([C@H]2CCN[C@@H]2CO)cc1.Cl [Compound 5, (2S,3R)-2-(hydroxymethyl)-3-(4-octylphenyl)Pyrrolidinium chloride] | activating PP2A | failed to activate
